In data set [1] the test system is CAR-expressing, transduced T cells. In words: CART co-culture with NALM6 cells in the presence of RAD001. Format: cell-based. The settings on record: low doses of RAD001 (nM); 4 days of co-culture with NALM6. On the procedure:
CARTs were co-cultured with NALM6 (Nalm-6) cells in the presence of different concentrations of RAD001 (nM). The number of CAR-positive CD3-positive T cells (black) and total T cells (white) was assessed after 4 days of co-culture.

Data set [2] concerns CAR T cells. As to the kind of experiment: In vivo proliferation of humanized CD19 CART cells with and without RAD001 dosing. Conditions: RAD001 0.003 mg/kg daily with huCTL019; versus normal level of huCAR19 proliferation. On the procedure: FIGS. 62A and 62B show in vivo proliferation of humanized CD19 CART cells with and without RAD001 dosing. […] Circles denote PBS; squares denote huCTL019; triangles denote huCTL019 with 3 mg/kg RAD001; inverted triangles denote huCTL019 with 0.3 mg/kg RAD001; diamonds denote huCTL019 with 0.03 mg/kg RAD001; and circles denote huCTL019 with 0.003 mg/kg RAD001.

The subject of the next data set is NALM6 (Nalm-6). In words: 4 day co-culture proliferation of huCART19 with RAD001. The class given is cell-based, human. On the procedure:
To evaluate the functionality of CARTs, the T cells are thawed and counted, and viability is assessed by Cellometer. The number of CAR-positive cells in each culture is normalized using non-transduced T cells (UTD). The impact of RAD001 on CARTs was tested in titrations with RAD001, starting at 50 nM. The target cell line used in all co-culture experiments is NALM6 (Nalm-6), a human pre-B cell acute lymphoblastic leukemia (ALL) cell line expressing CD19 and transduced to express luciferase.
For measuring the proliferation of CARTs, T cells are cultured with target cells at a ratio of 1:1. The assay is run for 4 days, when cells are stained for CD3, CD4, CD8 and CAR expression. The number of T cells is assessed by flow cytometry using counting beads as reference.
The proliferative capacity of CART cells was tested in a 4 day co-culture assay.

The subject of another data set is NALM6-luc tumors. In words: RAD001 alone on growth of NALM6-luc tumors. The class given is in vivo, NSG mice. The settings on record: daily oral dosing of RAD001 alone. On the procedure: NALM6-luc cells: The NALM6 human acute lymphoblastic leukemia (ALL) cell line was developed from the peripheral blood of a patient with relapsed ALL. The cells were then tagged with firefly luciferase. These suspension cells grow in RPMI supplemented with 10% heat inactivated fetal bovine serum.
Mice: 6 week old NSG (NOD.Cg-PrkdcscidIl2rgtm1Wjl/SzJ) mice were received from the Jackson Laboratory (stock number 005557).
Tumor implantation: NALM6-luc cells were grown and expanded in vitro in RPMI supplemented with 10% heat inactivated fetal bovine serum. The cells were then transferred to a 15 ml conical tube and washed twice with cold sterile PBS. NALM6-luc cells were then counted and resuspended at a concentration of 10×10^6 cells per milliliter of PBS. The cells were placed on ice and immediately (within one hour) implanted in the mice. NALM6-luc cells were injected intravenously via the tail vein in a 100 μl volume, for a total of 1×10^6 cells per mouse.
(§1) RAD001 dosing: A concentrated micro-emulsion of 50 mg equal to 1 mg RAD001 was formulated and then resuspended in D5W (dextrose 5% in water) at the time of dosing. Mice were orally dosed daily (via oral gavage) with 200 μl of the desired doses of RAD001.
(§2) The expansion and pharmacokinetics of RAD001 was tested in NSG mice with NALM6-luc tumors.

Data set [3] is described as follows: RAD001 PK analysis in tumor bearing mice. The class given is in vivo, NSG mice. On the procedure: as §1
PK analysis: Mice were dosed daily with RAD001 starting 7 days post tumor implantation. Dosing groups were as follows: 0.3 mg/kg, 1 mg/kg, 3 mg/kg, and 10 mg/kg. Mice were bled on days 0 and 14 following the first and last dose of RAD001, at the following time points for PK analysis: 15 minutes, 30 minutes, 1 hour, 2 hours, 4 hours, 8 hours, 12 hours, and 24 hours.
as §2

In data set [4] the test system is CAR T cells. As to the kind of experiment: huCAR19 CAR T cell expansion in vivo with RAD001. The settings on record: lowest doses of RAD001, daily oral. Also on record: species or system NSG mice. On the procedure: CAR T cell dosing: Mice were administered 5×10^6 CAR T cells 7 days after tumor implantation. Cells were partially thawed in a 37 degree Celsius water bath and then completely thawed by the addition of 1 ml of cold sterile PBS to the tube containing the cells. The thawed cells were transferred to a 15 ml falcon tube and adjusted to a final volume of 10 mls with PBS. The cells were washed twice at 1000 rpm for 10 minutes each time and then counted on a hemocytometer. T cells were then resuspended at a concentration of 50×10^6 CAR T cells per ml of cold PBS and kept on ice until the mice were dosed. The mice were injected intravenously via the tail vein with 100 μl of the CAR T cells for a dose of 5×10^6 CAR T cells per mouse. Eight mice per group were treated either with 100 μl of PBS alone (PBS), or humanized CD19 CAR T cells.
as §1
Based on these doses, huCAR19 CAR T cells were dosed with and without RAD001 to determine the proliferative ability of these cells. The highest dose used was 3 mg/kg based on the levels of RAD001 in the blood 24 hours after dosing. […] Mice were monitored via FACS for T cell expansion. […]

The next data set has as its system r/r B-ALL. Conditions: cited from earlier work.

Some results are limits rather than exact numbers.

Regarding `CO[C@H]1C[C@@H]2CC[C@@H](C)[C@@](O)(O2)C(=O)C(=O)N2CCCC[C@H]2C(=O)O[C@H]([C@H](C)C[C@@H]2CC[C@@H](OCCO)[C@H](OC)C2)CC(=O)[C@H](C)/C=C(\C)[C@@H](O)[C@@H](OC)C(=O)[C@H](C)C[C@H](C)/C=C/C=C/C=C/1C` [RAD001, everolimus], the “proliferation of CAR-expressing, transduced T cells” value in data set [1] is reported as “enhanced”. Besides, in the data set on CAR T cells [2], the “CAR T cell proliferation in vivo” value is “enhancement in CAR T cell proliferation”. Moreover, the “proliferation of huCART19 cells” value in the data set with NALM6 (Nalm-6) (0.0032 and 0.016 nM RAD001) was “higher than observed without the addition of RAD001”. Further, the “RAD001 concentration at which huCART19 cells expanded” value with NALM6 (Nalm-6) (lesser extent at higher concentrations) is given as “less than 0.016 nM”. Further, in the data set with NALM6-luc tumors, the “growth of NALM6-luc tumors” value is given as “did not have an impact on the growth of NALM6-luc tumors”. Also, in data set [3] (24 hours after the final dose), the “concentration of RAD001 in blood” value is “above 10 nM”. Besides, in data set [3] (NSG, mouse, whole blood, oral, 24 hours after dosing, 0.3 mg/kg, day 0 and day 14, read-out: RAD001 concentrations in the blood), the concentration at 24 h was above 10 nM. For the same compound, the “stability in the blood of tumor bearing mice” value in data set [3] (mouse, in vivo) is recorded as “fairly stable in the blood”. The “proliferation of the CAR T cells in vivo” value in the data set with CAR T cells [4] was “enhanced proliferation of the CAR T cells”.

With “blinatumomab: bi-specific anti-CD19/CD3 antibody combining an anti-CD19 scFv with an anti-CD3 scFv”, the “share of relapses that are CD19-negative” value in the data set on r/r B-ALL is given as “about 30%”.

(Values after patent publication US10253086B2, “CD20 therapies, CD22 therapies, and combination therapies with a CD19 chimeric antigen receptor (CAR)-expressing cell” (Novartis AG, priority 2015, dated 2019).)
